According to patent publication US8518965B2, “Compositions and methods for treating cancer” (Trustees of Dartmouth College, priority 2009, dated 2013):
Read-outs that look alike come from different tables or passages of the source.

Assays:
[1] = State of stock and injection solutions in water + co-solvents; type: physicochemical
Experimental: (§1) The solubility of D11B in various combinations of solvents was also analyzed. […] For the analysis of co-solvents, stock solutions were prepared by dissolving D11B in a corresponding solvent. Stock solutions of D11B in dimethylsulfoxide (DMSO) were prepared at 25° C., and stock solutions of D11B in PEG-400, CREMOPHOR® EL and Polysorbate 80 were prepared at 100° C. Injection solutions, in water (0.3 mg/ml), were prepared by dropwise addition of the stock solution to a required volume of vigorously stirred hot water (80° C.).
Additional solubility determinations were carried out with D11B×2AH in water+co-solvents. For this analysis, stock solutions were prepared by dissolving D11B×2AH in a corresponding solvent. Stock solutions of D11B×2AH in DMSO were prepared at 25° C. and stock solutions of D11B×2AH in PEG-400 were prepared at 100° C.
Injection solutions in water (0.3 mg/ml) were prepared by dropwise addition of each stock solution to a required volume of vigorously stirred water.

[2] = tested on: SF 295 human glioblastoma cells; assay: Colony formation assay, SF 295 cells; type: cell-based
Experimental: (§2) NCI/ADR-RES human breast cancer cells (500 cells), HCT116 human colon cancer cells (400 cells) or SF 295 human glioblastoma cells (1000 cells) were plated in 60 mm Petri dishes containing 2.7 ml of medium (modified McCoy's 5a medium containing 10% fetal bovine serum and 100 units/ml penicillin and 100 μg/ml streptomycin). The cells were incubated in a CO2 incubator at 37° C. for 5 hours for attachment to the bottom of Petri dishes. Compounds were prepared fresh in medium at ten times the final concentration, and then 0.3 ml of this stock solution was added to the 2.7 ml of medium in the dish. The cells were then incubated with compounds for 72 hours at 37° C. At the end of incubation, the compound-containing media were decanted, the dishes were rinsed with 4 ml of Hank's Balance Salt Solution (HBSS), 5 ml of fresh medium was added, and the dishes were returned to the incubator for colony formation. The cell colonies were counted using a colony counter after incubation for 14 days for NCI/ADR-RES cells and 10 days for HCT116 cells and SF 295 cells. Cell survival was calculated and the IC50 values (the drug concentration producing 50% inhibition of colony formation) were determined for each tested compound.
One thousand SF 295 cells were plated in 60 mm Petri dishes containing 2.7 ml of medium (modified McCoy's 5a medium containing 10% fetal bovine serum and 100 units/ml penicillin and 100 μg/ml streptomycin). The cells were incubated in a CO2 incubator at 37° C. for 5 hours for attachment to the bottom of Petri dishes. Compounds were prepared fresh in medium at ten times the final concentration, and then 0.3 ml of this stock solution was added to the 2.7 ml of medium in the dish. The cells were then incubated with the compounds for 72 hours at 37° C. At the end of incubation, the compound-containing media were decanted, the dishes were rinsed with 4 ml of Hank's Balance Salt Solution (HBSS), 5 ml of fresh medium was added, and the dishes were returned to the incubator for colony formation. After incubation for 10 days, the cell colonies were counted using a colony counter. Cell survival was calculated and the values of IC50 were determined for each compound tested.

[3] = Solubility in solvents and buffers; type: physicochemical; settings: for solubility: read-out: Solubility (mg/ml), 25° C.
Experimental: Characterization of D11B. The solubility of D11B in different solvents was analyzed (Table 1).
as §1
The solubility of D11B×2AH in DMSO, PEG-400, EtOH, and buffer was determined (Table 7).

[4] = tested on: HCT116 human colon cancer cells; assay: Colony formation assay, HCT116 cells; type: cell-based
Experimental: as §2
Four hundred HCT116 cells were plated in 60 mm Petri dishes containing 2.7 ml of medium (modified McCoy's 5a medium containing 10% fetal bovine serum and 100 units/ml penicillin and 100 μg/ml streptomycin). The cells were incubated in a CO2 incubator at 37° C. for 5 hours for attachment to the bottom of Petri dishes. Compounds were prepared fresh in medium at ten times the final concentration, and then 0.3 ml of this stock solution was added to the 2.7 ml of medium in the dish. The cells were then incubated with drugs for 72 hours at 37° C. At the end of incubation the compound-containing media were decanted, the dishes were rinsed with 4 ml of Hank's Balance Salt Solution (HBSS), 5 ml of fresh medium was added, and the dishes were returned to the incubator for colony formation. HCT116 cell colonies were counted using a colony counter after […] of incubation. Cell survival was calculated and IC50 values were determined for each compound tested.

[5] = tested on: HCT116 human colon cancer xenografts; assay: In vivo efficacy, HCT116 xenografts in nude mice; design: species or system nude mice (nu/nu genotype); settings: single i.p. injection
Experimental: This in vivo anticancer efficacy study was performed on nude mice (nu/nu genotype) bearing HCT116 human colon cancer xenografts. These human tumors grew exponentially following implantation into the flanks of the mice and reached a diameter of 3 mm. Treatment was initiated at that time, with the first day of treatment designated as day 0 for all calculations and plots. […] Mice in the control group, bearing 3 mm diameter tumors, were treated with vehicle alone. After treatment, tumor sizes were measured by caliper every day. Daily measurement of the tumor diameters (d1, d2) in two orthogonal directions was used to calculate the tumor volume (tumor volume=π/6{(d1+d2)/2}^3) using the approximation that the tumors were spherical. The values of time (days) required to grow the tumor to the size of 1,000 cu. mm after various treatments and tumor growth delay percentage were calculated for evaluating the treatment effects. Survival times and tumor inhibitory effects on day 20 after treatment were also observed and recorded.

c1ccc2c(Nc3ccc(Oc4ccc(Nc5c6ccccc6nc6ccccc56)cc4)cc3)c3ccccc3nc2c1 [Compound D11B]
State of the stock solution ([1]; D11B in DMSO, 20 mg/ml): clear
State of the stock solution ([1]; D11B in DMSO, 30 mg/ml): clear
State of the stock solution ([1]; D11B in DMSO, 40.5 mg/ml): clear
State of the stock solution ([1]; D11B in DMSO, 50 mg/ml): clear
State of the stock solution ([1]; D11B in DMSO, 70 mg/ml): clear
State of the stock solution ([1]; D11B in DMSO, 100 mg/ml): clear
State of the injection solution ([1]; D11B in H2O-CREMOPHOR EL, 0.3 mg/ml, CREMOPHOR EL 1 wt. %): clear
State of the injection solution ([1]; D11B in H2O-PEG-400 0.3 mg/ml, stock 12 mg/ml, PEG-400 2.82 wt. %): clear^b
State of the injection solution ([1]; D11B in H2O-PEG-400 0.3 mg/ml, stock 20 mg/ml, PEG-400 1.7 wt. %): clear^a
State of the injection solution ([1]; D11B in H2O-Polysorbate 80, 0.3 mg/ml, Polysorbate 80 1 wt. %): clear
State of the injection solution ([1]; D11B in H2O—DMSO 0.3 mg/ml, stock 20 mg/ml, DMSO 1.65 wt. %): clear
State of the injection solution ([1]; D11B in H2O—DMSO 0.3 mg/ml, stock 30 mg/ml, DMSO 1.1 wt. %): clear
State of the injection solution ([1]; D11B in H2O—DMSO 0.3 mg/ml, stock 40.5 mg/ml, DMSO 0.83 wt. %): clear
State of the injection solution ([1]; D11B in H2O—DMSO 0.3 mg/ml, stock 50 mg/ml, DMSO 0.66 wt. %): clear
State of the injection solution ([1]; D11B in H2O—DMSO 0.3 mg/ml, stock 70 mg/ml, DMSO 0.47 wt. %): clear
State of the injection solution ([1]; D11B in H2O—DMSO 0.3 mg/ml, stock 100 mg/ml, DMSO 0.33 wt. %): clear
State of the stock solution ([1]; D11B in PEG-400, 12 mg/ml): clear
State of the stock solution ([1]; D11B in PEG-400, 20 mg/ml): gel
State of the stock solution ([1]; D11B in PEG-400, 40 mg/ml): gel
State of the stock solution ([1]; D11B in Polysorbate 80, 32.25 mg/ml): clear
IC50 ([2]; Homo sapiens, SF 295 cells, 72 hours with compound, colonies counted after 10 days, read-out: IC50 (nM) Glioblastoma): 177 nM
IC50 values lower for glioblastoma cells as compared to breast cancer cells ([2]; glioblastoma vs breast cancer cells): approximately 10 fold
Solubility in 5% dextrose in water ([3]; 5% dextrose in water): negligible
solubility ([3]; AcOH, 25 °C, organic solvent or mixture, AcOH): ~0.01 mg/mL
solubility ([3]; AcOH-H2O (1-1), 25 °C, aqueous with cosolvent or surfactant or cyclodextrin, AcOH—H2O (1-1)): > 1.1 mg/mL
solubility ([3]; AcOH-H2O (9-1), 25 °C, organic solvent or mixture, AcOH—H2O (9-1)): > 13 mg/mL
solubility ([3]; CHCl3, 25 °C, organic solvent or mixture, CHCl3): 0.12 mg/mL
solubility ([3]; DMF, 25 °C, organic solvent or mixture, DMF): ~20 mg/mL
solubility ([3]; DMSO, 25 °C, organic solvent or mixture, DMSO): ~100 mg/mL
Solubility (mg/ml), 25° C. ([3]; H2O): negligible
solubility ([3]; MeOH, 25 °C, organic solvent or mixture, MeOH): ~1 mg/mL
solubility ([3]; Na2HPO4-citric acid buffer, 25 °C, pH 4, aqueous buffer, Na2HPO4-citric acid buffer (pH = 4), first entry): < 0.1 mg/mL
solubility ([3]; Na2HPO4-citric acid buffer, 25 °C, pH 4, aqueous buffer, Na2HPO4-citric acid buffer (pH = 4), second entry): < 0.1 mg/mL
solubility ([3]; PEG-400, 25 °C, organic solvent or mixture, PEG-400, heating to 100° C. was required): ~12 mg/mL
Solubility in saline ([3]; saline (0.9% NaCl in water)): negligible
IC50 ([4]; Homo sapiens, HCT-116, HCT116 cells, 72 hours with compound, colonies counted after 10 days, read-out: IC50 (nM) Colon Cancer): 167 nM
IC50 values lower for colon cells as compared to breast cancer cells ([4]; colon vs breast cancer cells): approximately 10 fold
Mean survival time ([5]; control group 19.7 days): 40.5 days
Tumor growth delay percentage ([5]; time for growth up to the tumor volume of 1,000 cu. mm): 131%
Inhibition ratio ([5]; tumor growth on day 20 after drug administration): 4.65
